Reference: patent US20140213466A1, “HIGH-THROUGHPUT ASSESSMENT METHOD FOR CONTACT HYPERSENSITIVITY” (Rutgers, The State University of New Jersey, priority 2010, published 2014)

Experiments:
[1] = tested on: skin tissues (Episkin / Mutz3-LC co-culture); experiment: cytokine measurements (27 cytokines) of skin tissues exposed to known sensitizing chemicals, analysed by PCA; assay type: cell-based, human; settings: several chemical concentrations, multiple replicates, comparison IE vs SA
Description: We have taken cytokine measurements of skin tissues that were exposed to known sensitizing chemicals. […] Principal component analysis (PCA) was used to reduce the high dimensional data into a lower dimension so that the differences in response from each chemical could be visualized.
Multiple cytokines and growth factors were assessed using the Biorad Bioplex Analyzer. 1 ml supernatants were collected for undifferentiated Mutz3 cells, Day 7 differentiated cells [Mutz3-LC] and Day 9 mature cells [mMutz3-LC]. The supernatants were tested for 27 cytokines with respective standards to detect cytokine secretion levels. Basal media samples were utilized as controls and supplementation with growth factors and cytokines viz. GMCSF, TGF-beta1, TNF-alpha, IL-6, IL1β were taken into account in the calculations. Cytokine secretion levels [pg/ml] were converted to [pg/million cells/day] by normalizing with the cell number for each cell stage of differentiation.
Different doses of SA (Salicylic Acid), IE (Isoeugenol), PPD (Paraphenylenediamine) and DNCB (DiNitroChlorobenzene) were topically applied onto a 1 cm^2 nylon disc to Episkin™ in 12 well inserts. The lower chamber consisted of Mutz3-LCs at a density of 250,000 cells/ml. Forty eight (48) hrs post sensitization, cells were resuspended in 1 ml fresh maturation media, supernatants were collected for subsequent analysis and cell count was performed. […]

[2] = stated as known property of the chemical; cited from earlier work

Question: With O=C(O)c1ccccc1O as the compound, how does the “cytokine profile induced in skin tissues (PCA, FIG. 11)” value [1] read?
Answer: Its value is “do not induce distinct cytokine profiles”.

Question: What about the skin sensitizer class [2] of the same compound?
Answer: Its skin sensitizer class is “non-sensitizing irritant”.

Question: Which “cytokine profile induced in skin tissues (PCA, FIG. 11)” value [1] does the source give for CC=Cc1ccc(O)c(OC)c1 [isoeugenol] here?
Answer: The value was “do not induce distinct cytokine profiles”.

Question: And the skin sensitizer class [2]?
Answer: The skin sensitizer class was “strong sensitizer”.
